From patent US11364232B2, “Polymer of gamma-glutamyl transpeptidase catalyzing hydrolysis-induced charge reversal and its application in the field of drug delivery” (ZHEJIANG UNIVERSITY, priority 2017, dated 2022)

Target: γ-glutamyl transpeptidase (Homo sapiens, UniProt P19440)
Assay: γ-glutamyl transpeptidase (GGT)-catalyzed hydrolysis of monomers followed by NMR
Type: biochemical
Conditions: monomer 25 μM in PBS pH 7.4 (D2O), GGT 1 U/mL, 37° C.
Experimental: Dissolve monomers GABEA or GAEA in PBS solution (pH=7.4, prepared by D2O) and configure the monomer concentration to 25 μM in the PBS solution. γ-glutamyl transpeptidase was added into the solution respectively so that the concentration of γ-glutamyl transpeptidase in the solution is 1 U/mL. At this time, the obtained product was immediately detected by nuclear magnetic resonance. The sample was placed in a 37° C. incubator and analyzed the nuclear magnetic resonance at different times.

Chain of γ-glutamyl transpeptidase (P19440 whole entry): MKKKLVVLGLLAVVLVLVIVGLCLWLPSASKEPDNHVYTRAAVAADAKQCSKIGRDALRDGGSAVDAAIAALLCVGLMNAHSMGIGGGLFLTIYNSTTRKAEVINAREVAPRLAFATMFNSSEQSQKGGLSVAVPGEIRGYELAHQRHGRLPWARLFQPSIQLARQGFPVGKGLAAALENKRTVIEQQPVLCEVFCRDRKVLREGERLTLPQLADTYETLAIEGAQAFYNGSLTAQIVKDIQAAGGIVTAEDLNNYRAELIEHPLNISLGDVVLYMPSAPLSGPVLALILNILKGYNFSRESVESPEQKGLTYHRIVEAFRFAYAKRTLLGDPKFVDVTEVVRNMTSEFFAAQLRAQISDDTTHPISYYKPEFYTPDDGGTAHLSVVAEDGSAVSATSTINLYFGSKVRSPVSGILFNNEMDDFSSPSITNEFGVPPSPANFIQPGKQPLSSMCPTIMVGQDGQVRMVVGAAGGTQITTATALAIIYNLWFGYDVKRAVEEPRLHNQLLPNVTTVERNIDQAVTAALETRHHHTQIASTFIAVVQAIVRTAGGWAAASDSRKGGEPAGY

hydrolysis activity of γ-glutamyl transpeptidase | SMILES
lower catalytic activity | C=CC(=O)NCCNC(=O)CCC(N)C(=O)O (centres unmarked) [GAEA]
far greater than GAEA | C=CC(=O)NCCNC(=O)C(CC)NC(=O)CCC(N)C(=O)O (centres unmarked) [GABEA]
